We go through 29 compounds from patent US12338237B2, “Derivatives having 1,2,3,4-tetrahydronaphthalene moiety or pharmaceutically acceptable salt thereof and pharmaceutical compositions comprising the same” (YUHAN CORPORATION, priority 2019, dated 2025).

For one assay, the system named is GM1 production. The assay is described as follows: cells. Type of assay: cell-based.
In assay [1] the target is glucosylceramide synthase (GCS) (Homo sapiens (Human), UniProt Q16739). Description: Evaluation of inhibitory activities against GCS (enzyme reaction with A549 cell lysate, NBD C6-ceramide, HPLC fluorescence). The assay is classed as biochemical. The settings on record: GCS activity in A549 cell lysate, 37° C. for 90 minutes. In short, it runs like this:
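Lysate of A549 cells in 50 mM HEPES pH 7.3 incubated with test compound and NBD C6-ceramide at 37 °C for 90 min; lipids extracted with chloroform/methanol and GlcCer and ceramide peaks quantified by HPLC fluorescence. Activity from GlcCer area fraction, normalised between DMSO and ibiglustat controls.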

SMILES strings stand for the structures. Like-named read-outs stand apart in the source and are kept apart here.

glucosylceramide synthase (GCS), sequence (Q16739 whole entry, looked up): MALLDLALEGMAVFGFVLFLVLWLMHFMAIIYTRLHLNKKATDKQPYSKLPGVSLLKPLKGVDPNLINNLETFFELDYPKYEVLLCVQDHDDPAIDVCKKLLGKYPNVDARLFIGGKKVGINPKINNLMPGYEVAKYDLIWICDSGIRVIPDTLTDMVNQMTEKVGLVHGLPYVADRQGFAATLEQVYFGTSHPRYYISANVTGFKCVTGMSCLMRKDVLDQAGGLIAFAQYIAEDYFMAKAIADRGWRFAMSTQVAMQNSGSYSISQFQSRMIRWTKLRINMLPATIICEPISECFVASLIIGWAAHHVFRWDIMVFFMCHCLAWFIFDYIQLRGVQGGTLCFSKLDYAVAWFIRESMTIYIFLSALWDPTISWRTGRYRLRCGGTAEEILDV

Usually IC50 stands for the midpoint of a concentration-inhibition curve. Regarding `COCCOc1ccc(-c2ccc3c(c2)C(NC(=O)O[C@@H]2CN4CCC2CC4)CCC3)cc1` (stereo partly drawn) [Example 79, (S)-quinuclidin-3-yl (7-(4-(2-methoxyethoxy)phenyl)-1,2,3,4-tetrahydronaphthalen-1-yl)carbamate], the IC50 in the assay on GM1 production (Homo sapiens, Jurkat, 72 h) came out at 65.3 nM; in assay [1], 12.9 nM.

Regarding `COc1cc(-c2ccc3c(c2)CCCC3NC(=O)O[C@@H]2CN3CCC2CC3)ccn1` (stereo partly drawn) [Example 51, (S)-quinuclidin-3-yl (6-(2-methoxypyridin-4-yl)-1,2,3,4-tetrahydronaphthalen-1-yl)carbamate], the concentration for half-maximal inhibition (IC50) was 426 nM with GM1 production (Homo sapiens, Jurkat, 72 h) and 9.42 nM in assay [1].

With `O=C(NC1CCCc2ccc(-c3ccc(Cl)c(Cl)c3)cc21)O[C@@H]1CN2CCC1CC2` (stereo partly drawn) [Example 70, (S)-quinuclidin-3-yl (7-(3,4-dichlorophenyl)-1,2,3,4-tetrahydronaphthalen-1-yl)carbamate], the half-inhibitory concentration (IC50) with GM1 production (Homo sapiens, Jurkat, 72 h) was 133 nM; in assay [1], 83.9 nM.

Regarding `O=C(NC1c2ccc(-c3ccc(OC(F)(F)F)cc3)cc2CCC12CC2)O[C@@H]1CN2CCC1CC2` (stereo partly drawn) [Example 189, (S)-quinuclidin-3-yl (6′-(4-(trifluoromethoxy)phenyl)-3′,4′-dihydro-1′H-spiro[cyclopropane-1,2′-naphthalen]-1′-yl)carbamate], the IC50 amounted to 25.1 nM in the assay with GM1 production (Homo sapiens, Jurkat, 72 h) and 18.9 nM in assay [1].

As for `COc1ccc(-c2ccc3c(c2)CCC(C)(C)C3NC(=O)O[C@@H]2CN3CCC2CC3)c(F)c1` (stereo partly drawn) [Example 148, (S)-quinuclidin-3-yl (6-(2-fluoro-4-methoxyphenyl)-2,2-dimethyl-1,2,3,4-tetrahydronaphthalen-1-yl)carbamate], the 50% inhibitory concentration (IC50) with GM1 production (Homo sapiens, Jurkat, 72 h) came out at 4.6 nM; in assay [1], 3.21 nM.

Turning to `COCOc1cccc(-c2ccc3c(c2)C(NC(=O)O[C@@H]2CN4CCC2CC4)C(C)(C)CC3)c1` (stereo partly drawn) [Example 169, (S)-quinuclidin-3-yl (7-(3-(methoxymethoxy)phenyl)-2,2-dimethyl-1,2,3,4-tetrahydronaphthalen-1-yl)carbamate], the IC50 with GM1 production (Homo sapiens, Jurkat, 72 h) is 442 nM; in assay [1] it was 40.9 nM.

As to `CC1(C)CCc2ccc(-c3ccccc3Cl)cc2C1NC(=O)O[C@@H]1CN2CCC1CC2` (stereo partly drawn) [Example 160, (S)-quinuclidin-3-yl (7-(2-chlorophenyl)-2,2-dimethyl-1,2,3,4-tetrahydronaphthalen-1-yl)carbamate], the IC50 in the assay with GM1 production (Homo sapiens, Jurkat, 72 h) was 67.7 nM; in assay [1] it was 14.5 nM.

As for `CCCc1ccc(-c2cc3c(cc2F)C(NC(=O)O[C@@H]2CN4CCC2CC4)C(C)(C)CC3)cc1` (stereo partly drawn) [Example 229, (S)-quinuclidin-3-yl (7-fluoro-2,2-dimethyl-6-(4-propylphenyl)-1,2,3,4-tetrahydronaphthalen-1-yl)carbamate], the concentration for half-maximal inhibition (IC50) came out at 1.7 nM with GM1 production (Homo sapiens, Jurkat, 72 h) and 0.31 nM in assay [1].

Take `COCCOc1cccc(-c2ccc3c(c2)CCC2(CC2)C3NC(=O)O[C@@H]2CN3CCC2CC3)c1` (stereo partly drawn) [Example 195, (S)-quinuclidin-3-yl (6′-(3-(2-methoxyethoxy)phenyl)-3′,4′-dihydro-1′H-spiro[cyclopropane-1,2′-naphthalen]-1′-yl)carbamate]: the IC50 with GM1 production (Homo sapiens, Jurkat, 72 h) stood at 23.3 nM; in assay [1] it was 5.39 nM.

With `CC(C)Oc1cccc(-c2ccc3c(c2)CCC(C)(C)C3NC(=O)O[C@@H]2CN3CCC2CC3)c1` (stereo partly drawn) [Example 132, (S)-quinuclidin-3-yl (6-(3-isopropoxyphenyl)-2,2-dimethyl-1,2,3,4-tetrahydronaphthalen-1-yl)carbamate], the half-maximal inhibitory concentration (IC50) with GM1 production (Homo sapiens, Jurkat, 72 h) was found to be 2 nM; in assay [1], 1.16 nM.

In the case of `CC1(C)CCc2cc(-c3cc(F)ccc3F)ccc2C1NC(=O)O[C@@H]1CN2CCC1CC2` (stereo partly drawn) [Example 103, (S)-quinuclidin-3-yl (6-(2,5-difluorophenyl)-2,2-dimethyl-1,2,3,4-tetrahydronaphthalen-1-yl)carbamate], the concentration for half-maximal inhibition (IC50) is 0.997 nM in the assay with GM1 production (Homo sapiens, Jurkat, 72 h) and 0.95 nM in assay [1].

`CC1(C)CCc2cc(-c3ccc(F)c(F)c3)ccc2C1NC(=O)O[C@@H]1CN2CCC1CC2` (stereo partly drawn) [Example 100, (S)-quinuclidin-3-yl (6-(3,4-difluorophenyl)-2,2-dimethyl-1,2,3,4-tetrahydronaphthalen-1-yl)carbamate]: the 50% inhibitory concentration (IC50) with GM1 production (Homo sapiens, Jurkat, 72 h) was determined as 2.59 nM; in assay [1], 1.78 nM.

For `CC1(C)CCc2ccc(-c3cccc(Cl)c3)cc2C1NC(=O)O[C@@H]1CN2CCC1CC2` (stereo partly drawn) [Example 156, (S)-quinuclidin-3-yl (7-(3-chlorophenyl)-2,2-dimethyl-1,2,3,4-tetrahydronaphthalen-1-yl)carbamate], the 50% inhibitory concentration (IC50) was found to be 132 nM with GM1 production (Homo sapiens, Jurkat, 72 h) and 19.6 nM in assay [1].

As to `O=C(NC1CCCc2ccc(-c3cccnc3)cc21)O[C@@H]1CN2CCC1CC2` (stereo partly drawn) [Example 73, (S)-quinuclidin-3-yl (7-(pyridin-3-yl)-1,2,3,4-tetrahydronaphthalen-1-yl)carbamate], the IC50 came out at 587 nM with GM1 production (Homo sapiens, Jurkat, 72 h) and 359 nM in assay [1].

Take `CCc1cccc(-c2ccc3c(c2)CCC2(CC2)C3NC(=O)O[C@@H]2CN3CCC2CC3)c1` (stereo partly drawn) [Example 203, (S)-quinuclidin-3-yl (6′-(3-ethylphenyl)-3′,4′-dihydro-1′H-spiro[cyclopropane-1,2′-naphthalen]-1′-yl)carbamate]: the IC50 in the assay on GM1 production (Homo sapiens, Jurkat, 72 h) came to 35 nM; in assay [1], 13.5 nM.

As for `CC(C)Cc1ccc(-c2cc3c(cc2F)C(NC(=O)O[C@@H]2CN4CCC2CC4)C(C)(C)CC3)cc1` (stereo partly drawn) [Example 230, (S)-quinuclidin-3-yl (7-fluoro-6-(4-isobutylphenyl)-2,2-dimethyl-1,2,3,4-tetrahydronaphthalen-1-yl)carbamate], the IC50 in the assay on GM1 production (Homo sapiens, Jurkat, 72 h) is 1.8 nM; in assay [1], 0.3 nM.

In the case of `O=C(NC1CCCc2ccc(-c3ccc(F)c(F)c3F)cc21)O[C@@H]1CN2CCC1CC2` (stereo partly drawn) [Example 69, (S)-quinuclidin-3-yl (7-(2,3,4-trifluorophenyl)-1,2,3,4-tetrahydronaphthalen-1-yl)carbamate], the half-inhibitory concentration (IC50) was 220 nM with GM1 production (Homo sapiens, Jurkat, 72 h) and 40.5 nM in assay [1].

As to `CC1(C)CCc2cc(-c3ccc(F)cc3F)ccc2C1NC(=O)O[C@@H]1CN2CCC1CC2` (stereo partly drawn) [Example 101, (S)-quinuclidin-3-yl (6-(2,4-difluorophenyl)-2,2-dimethyl-1,2,3,4-tetrahydronaphthalen-1-yl)carbamate], the IC50 was determined as 2.55 nM in the assay on GM1 production (Homo sapiens, Jurkat, 72 h) and 1.59 nM in assay [1].

For `Cc1cc(-c2ccc3c(c2)CCC(C)(C)C3NC(=O)O[C@@H]2CN3CCC2CC3)ccn1` (stereo partly drawn) [Example 117, (S)-quinuclidin-3-yl (2,2-dimethyl-6-(2-methylpyridin-4-yl)-1,2,3,4-tetrahydronaphthalen-1-yl)carbamate], the half-inhibitory concentration (IC50) with GM1 production (Homo sapiens, Jurkat, 72 h) is 37.8 nM; in assay [1], 30.3 nM.

Consider `COc1cc2c(cc1-c1ccc(OC(C)C)cc1)CCC(C)(C)C2NC(=O)O[C@@H]1CN2CCC1CC2` (stereo partly drawn) [Example 238, (S)-quinuclidin-3-yl (6-(4-isopropoxyphenyl)-7-methoxy-2,2-dimethyl-1,2,3,4-tetrahydronaphthalen-1-yl)carbamate], for which the IC50 in the assay with GM1 production (Homo sapiens, Jurkat, 72 h) worked out at 3.5 nM; in assay [1] it was 0.55 nM.

On to `CCc1cccc(-c2ccc3c(c2)CCC(C)(C)C3NC(=O)O[C@@H]2CN3CCC2CC3)c1` (stereo partly drawn) [Example 127, (S)-quinuclidin-3-yl (6-(3-ethylphenyl)-2,2-dimethyl-1,2,3,4-tetrahydronaphthalen-1-yl)carbamate], for which the half-inhibitory concentration (IC50) in the assay on GM1 production (Homo sapiens, Jurkat, 72 h) is 2 nM; in assay [1], 1.92 nM.

In the case of `O=C(NC1CCCc2cc(-c3ccc(F)c(F)c3F)ccc21)O[C@@H]1CN2CCC1CC2` (stereo partly drawn) [Example 20, (S)-quinuclidin-3-yl (6-(2,3,4-trifluorophenyl)-1,2,3,4-tetrahydronaphthalen-1-yl)carbamate], the IC50 in the assay on GM1 production (Homo sapiens, Jurkat, 72 h) is 84.4 nM; in assay [1], 7.16 nM.

As to `CCCOc1c(C)cc(-c2cc3c(cc2F)C(NC(=O)O[C@@H]2CN4CCC2CC4)C(C)(C)CC3)cc1C` (stereo partly shown) [Example 228], the results for the IC50 (in the assay on GM1 production (read-out: IC50); in assay [1]) were 12.5 nM and 1.34 nM, respectively.

`O=C(NC1CCCc2cc(-c3ccnc4[nH]ccc34)ccc21)O[C@@H]1CN2CCC1CC2` (stereo partly drawn) [Example 54, (S)-quinuclidin-3-yl (6-(1H-pyrrolo[2,3-b]pyridin-4-yl)-1,2,3,4-tetrahydronaphthalen-1-yl)carbamate]: the IC50 was determined as 216 nM with GM1 production (Homo sapiens, Jurkat, 72 h) and 61.8 nM in assay [1].

Take `O=C(NC1CCCc2cc(-c3cncnc3)ccc21)O[C@@H]1CN2CCC1CC2` (stereo partly drawn) [Example 53, (S)-quinuclidin-3-yl (6-(pyrimidin-5-yl)-1,2,3,4-tetrahydronaphthalen-1-yl)carbamate]: the IC50 turned out to be 314 nM in the assay with GM1 production (Homo sapiens, Jurkat, 72 h) and 86.4 nM in assay [1].

Regarding `CC(C)(C)c1cccc(-c2ccc3c(c2)CCC2(CC2)C3NC(=O)O[C@@H]2CN3CCC2CC3)c1` (stereo partly drawn) [Example 204, (S)-quinuclidin-3-yl (6′-(3-(tert-butyl)phenyl)-3′,4′-dihydro-1′H-spiro[cyclopropane-1,2′-naphthalen]-1′-yl)carbamate], the IC50 worked out at 92.9 nM in the assay on GM1 production (Homo sapiens, Jurkat, 72 h) and 38.4 nM in assay [1].

As to `COCOc1cccc(-c2ccc3c(c2)CCCC3NC(=O)O[C@@H]2CN3CCC2CC3)c1` (stereo partly drawn) [Example 28, (S)-quinuclidin-3-yl (6-(3-(methoxymethoxy)phenyl)-1,2,3,4-tetrahydronaphthalen-1-yl)carbamate], the half-maximal inhibitory concentration (IC50) was determined as 5.31 nM with GM1 production (Homo sapiens, Jurkat, 72 h) and 1.33 nM in assay [1].

For `COCOc1ccccc1-c1ccc2c(c1)CCC(C)(C)C2NC(=O)O[C@@H]1CN2CCC1CC2` (stereo partly drawn) [Example 115, (S)-quinuclidin-3-yl (6-(2-(methoxymethoxy)phenyl)-2,2-dimethyl-1,2,3,4-tetrahydronaphthalen-1-yl)carbamate], the 50% inhibitory concentration (IC50) with GM1 production (Homo sapiens, Jurkat, 72 h) worked out at 0.56 nM; in assay [1], 1.17 nM.

Take `CCOc1ccc(-c2ccc3c(c2)C(NC(=O)O[C@@H]2CN4CCC2CC4)CCC3)cc1` (stereo partly drawn) [Example 81, (S)-quinuclidin-3-yl (7-(4-ethoxyphenyl)-1,2,3,4-tetrahydronaphthalen-1-yl)carbamate]: the IC50 in the assay on GM1 production (Homo sapiens, Jurkat, 72 h) worked out at 410 nM; in assay [1] it was 63.3 nM.
